Experiment [1] concerns collagen type X (Col10a1) expression in mouse chondrogenic ATDC5 cells. Put plainly: Chondrocyte hypertrophic differentiation in mouse chondrogenic ATDC5 cells (collagen type X expression). Conditions: Col10a1 expression by quantitative real-time PCR after two weeks of cell culture; read-out: IC50 values for the inhibition of collagen type X expression in mouse chondrogenic ATDC5 cells. The format is cell-based. An excerpt:
D) Determination of the effect on chondrocyte hypertrophic differentiation in mouse chondrogenic ATDC5 cells
The ATDC5 cell assay was used as in vitro model to determine the effects of the compounds of the invention on chondrocyte hypertrophic differentiation by monitoring the expression levels of collagen type X (Col10a1) as specific marker of chondrocyte hypertrophy.
Background: ATDC5 cells are a clonal mouse embryonic cell line derived from multipotent AT805 teratocarcinoma cells (Atsumi, T. et al., A chondrogenic cell line derived from a differentiating culture of AT805 teratocarcinoma cells, Cell Differ. Dev. 1990, 30, 109-116). The cells can undergo insulin-dependent chondrogenic cell differentiation entailing distinct differentiation stages starting from an undifferentiated, subconfluent stage, a condensation stage, a cartilage nodule formation stage and a calcification stage within 45 days of in vitro culture. Chondrogenic differentiation can be shown by measuring the expression of the cartilage main collagen (Col2a1) and aggrecan (AGC1) and glycosaminoglycan-staining with Alcian Blue within two weeks after insulin-triggered differentiation, and hypertrophic differentiation can be monitored by the expression of collagen type X (Col10a1), a specific marker of chondrocyte hypertrophy within 21 days of in vitro culture. (Shukunami, C. et al., Chondrogenic Differentiation of Clonal Mouse Embryonic Cell Lne ATDC5 In Vitro: Differentiation-dependent Gene Expression of Parathyroid Hormone (PTH)/PTH-related Peptide Receptor, J. Cell Biol. 1996, 133, 457-468). Growth factor BMP-2 is known to stimulate cell differentiation and can stimulate early and late-phase ATDC5 differentiation (Shukunami, C. et al., Sequential Progression of the Differentiation Program by Bone Morphogenetic Protein-2 in Chondrogenic Cell Line ATDC5, Exp. Cell Res. 1998, 241, 1-11). Thyroid hormone triiodothyronine (T3) promotes hypertrophic differentiation of growth plate chondrocytes (Robson, H. et al., Thyroid Hormone Acts Directly on Growth Plate Chondrocytes to Promote Hypertrophic Differentiation and Inhibit Clonal Expansion and Cell Proliferation, Endocrinology 2000, 141, 3887-3897). Addition of BMP2 and T3 can accelerate ATDC5 hypertrophic differentiation leading to the strong induction Col10a1 expression between 10-14 days. SGK-inhibitors were added to differentiating ATDC5 cells for 14 days and Col10a1 gene expression was quantified to determine effects on chondrocyte hypertrophic differentiation.
Cell assay description: ATDC5 cells were maintained in 300 cm^2 tissue culture flasks in DMEM/Ham's F12+5% FCS supplemented with 10 μg/ml human transferrin, 30 nM sodium selenite, 50 μg/ml kanamycin and grown at 37° C. in 5% CO2 in 95% air. To initiate cell differentiation, 9.9×10^4 cells were plated in 24 well plates and grown for 2 days. Medium was exchanged with DMEM/Ham's F12+5% FCS supplemented with 10 μg/ml human transferrin, 30 nM sodium selenite, 50 μg/ml ascorbic acid and 1 μg/ml BMP2. The assay was run in triplicates, compounds were added in […], and medium changed every 2-3 days including supplementation of compound. At day 7 after initiation of cell differentiation, 1 μM T3 was used as additional supplement in the cell culture.
After two weeks of cell culture, RNA was isolated and converted to cDNA for determination of gene expression by quantitative real-time PCR. Cells were lysed in 600 μl of RLT-buffer (Qiagen) and total RNA was isolated using the RNA-easy Mini RNA isolation Kit (Qiagen) which was run on a Qiacube system (Qiagen) according to the supplier's instructions. RNA was isolated in 30 μl of pure water and the RNA content measured by UV-spectroscopy (Nanodrop, Peqlab). For cDNA synthesis 50 ng total RNA was reverse transcribed using the High Capacity cDNA Reverse Transcription Kit (Applied Biosystems, Product Number 4368813) according to the manufacturer's instructions. […]
(In qPCR the cycle at which signal appears reflects the starting amount.)

For experiment [2], the target named is recombinant human SGK-1 enzyme (Homo sapiens, UniProt O00141). Put plainly: Enzymatic activity assay: SGK-1 substrate peptide phosphorylation (Caliper lab-chip mobility shift). The settings on record: peptide substrate 1 μM, ATP 10 μM, 60 min at 37° C., read-out: IC50 values for inhibition of SGK-1 enzymatic activity. The format is biochemical.
Experiment [3] concerns SGK-1 dependent phosphorylation of GSK3beta in U2OS cells. Kind of experiment: SGK-1 dependent phosphorylation of GSK3beta in U2OS cells overexpressing recombinant SGK-1 and GSK3beta. The format is cell-based, human. Conditions: U2OS cells, 6 h incubation, ratio of phosphorylated GSK3beta to total GSK3beta; read-out: IC50 values for inhibition of SGK-1 dependent phosphorylation of GSK3beta in U2OS cells.

Drawing on patent US9718825B2, “N-(4-(azaindazol-6-yl)-phenyl)-sulfonamides and their use as pharmaceuticals” (priority 2013, dated 2017), this text covers IC50 for 37 molecules.

The term IC50 denotes the point on the concentration scale where inhibition reaches its midpoint.

recombinant human SGK-1 enzyme, sequence (O00141 whole entry, looked up): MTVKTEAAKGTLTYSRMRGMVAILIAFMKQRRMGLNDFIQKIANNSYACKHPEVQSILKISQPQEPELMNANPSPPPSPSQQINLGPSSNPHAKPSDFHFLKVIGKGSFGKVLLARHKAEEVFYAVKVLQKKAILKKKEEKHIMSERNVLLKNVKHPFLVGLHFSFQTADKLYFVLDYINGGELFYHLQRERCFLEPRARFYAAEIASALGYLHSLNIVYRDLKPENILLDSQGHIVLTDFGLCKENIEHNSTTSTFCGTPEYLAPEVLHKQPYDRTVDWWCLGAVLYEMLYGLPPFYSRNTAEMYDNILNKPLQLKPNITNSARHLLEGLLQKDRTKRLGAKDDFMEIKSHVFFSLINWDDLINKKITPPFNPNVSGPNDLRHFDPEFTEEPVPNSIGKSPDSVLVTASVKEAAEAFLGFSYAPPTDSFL

Turning to `CC(=O)N1CCC(Oc2nc(-c3ccc(NS(=O)(=O)c4cc(Cl)ccc4F)cc3)cc3[nH]nc(C)c23)CC1` [Example 646], the IC50 amounted to 340 nM in experiment [1] and 11 nM in experiment [2].
In the case of `COCCCN1CCC(Oc2nc(-c3ccc(NS(=O)(=O)c4cc(F)ccc4F)cc3)nc3[nH]ncc23)CC1` [Example 394], the IC50 came to 290 nM in experiment [1] and 120 nM in experiment [2].
Take `COc1ccc(F)c(S(=O)(=O)Nc2ccc(-c3nc(OC4CCN(C(C)C)CC4)c4c(C)n[nH]c4n3)cc2)c1` [Example 357]: the IC50 in experiment [1] came to 61 nM; in experiment [2] it was 3.6 nM.
Take `CCN1CCCC(Oc2nc(-c3ccc(NS(=O)(=O)c4cc(OC)ccc4F)cc3)nc3[nH]nc(C)c23)C1` (stereo not shown) [Example 424]: the IC50 in experiment [1] was determined as 62 nM; in experiment [2] it was 13 nM.
For the molecule `COCCCN1CCC(Oc2nc(-c3ccc(NS(=O)(=O)c4cc(F)ccc4F)cc3)nc3[nH]nc(C)c23)CC1` [Example 397], the IC50 in experiment [1] was found to be 92 nM; in experiment [2], 8.2 nM.
In the case of `Cc1n[nH]c2nc(-c3ccc(NS(=O)(=O)c4cc(Cl)ccc4F)cc3)nc(OCCCO)c12` [Example 391], the IC50 was 120 nM in experiment [1] and 9.6 nM in experiment [2].
Take `O=S(=O)(Nc1ccc(-c2nc(O[C@H]3CC[C@@H](O)CC3)c3cn[nH]c3n2)cc1)c1cc(Cl)ccc1F` [Example 79]: the IC50 in experiment [1] worked out at 25 nM.
Take `Cc1n[nH]c2nc(-c3ccc(NS(=O)(=O)c4cc(Cl)ccc4Cl)cc3)nc(OC3CCN(C(C)C)CC3)c12` [Example 351]: the IC50 turned out to be 43 nM in experiment [1] and 3.8 nM in experiment [2].
With `CCOc1nc(-c2ccc(NS(=O)(=O)c3cc(Cl)c(F)cc3F)cc2)nc2[nH]nc(N)c12` [Example 451], the IC50 was found to be 10 nM in experiment [1] and 0.57 nM in experiment [2].
`CCOc1nc(-c2ccc(NS(=O)(=O)c3cc(Cl)ccc3Cl)cc2)nc2[nH]nc(C)c12` [Example 426]: the IC50 in experiment [1] was 60 nM; in experiment [2], 11 nM.
In the case of `CCN1CCCC(Oc2nc(-c3ccc(NS(=O)(=O)c4cc(Cl)ccc4F)cc3)nc3[nH]nc(C)c23)C1` (stereo not shown) [Example 418], the IC50 came to 30 nM in experiment [1] and 40 nM in experiment [2].
`Cc1ccc(F)c(S(=O)(=O)Nc2ccc(-c3nc(OC4CCN(C(C)C)CC4)c4c(C)n[nH]c4n3)cc2)c1` [Example 353]: the values for the 50% inhibitory concentration (IC50) in experiment [1] and in experiment [2] were 21 nM and 3.8 nM, respectively.
As for `CCN1CCCC(Oc2nc(-c3ccc(NS(=O)(=O)c4cc(Cl)ccc4Cl)cc3)nc3[nH]nc(C)c23)C1` (stereo not shown) [Example 422], the IC50 came out at 110 nM in experiment [1] and 40 nM in experiment [2].
Regarding `Cc1n[nH]c2nc(-c3ccc(NS(=O)(=O)c4cc(Cl)ccc4Cl)cc3)nc(OCCCO)c12` [Example 378], the IC50 in experiment [1] was 57 nM; in experiment [2], 5.8 nM.
`Cc1n[nH]c2nc(-c3ccc(NS(=O)(=O)c4cc(F)ccc4F)cc3)nc(OC3CCN(CCF)CC3)c12` [Example 344]: the IC50 in experiment [1] came out at 16 nM; in experiment [2], 5 nM.
For `Cc1ccc(C#N)c(S(=O)(=O)Nc2ccc(-c3nc(OCCCO)c4c(C)n[nH]c4n3)cc2)c1` [Example 380] the same measures were 120 nM and 12 nM.
For `Cc1n[nH]c2nc(-c3ccc(NS(=O)(=O)c4cc(F)ccc4F)cc3)nc(OC3CCN(C4CCC4)CC3)c12` [Example 398], the IC50 in experiment [1] is 7.2 nM; in experiment [2], 25 nM.
The like results for `O=S(=O)(Nc1ccc(-c2nc(OCCO)c3cn[nH]c3n2)cc1)c1cc(Cl)ccc1F` [Example 32] were, in that order, 280 nM and 5.1 nM.
For the molecule `Cc1nc(-c2ccc(NS(=O)(=O)c3cc4c(cc3Br)OCCCO4)cc2)nc2[nH]nc(N)c12` [Example 477], the IC50 in experiment [2] was determined as 4.8 nM; in experiment [3] it was 4500 nM.
On to `Nc1n[nH]c2nc(-c3ccc(NS(=O)(=O)c4cc(Cl)ccc4Cl)cc3)ncc12` [Example 452], for which the IC50 in experiment [2] is 2 nM; in experiment [3], 980 nM.
As to `Cc1nc(-c2ccc(NS(=O)(=O)c3cc(F)cc(F)c3Cl)cc2)nc2[nH]nc(N)c12` [Example 479], the IC50 in experiment [2] was determined as 16 nM; in experiment [3] it was 280 nM.
`CC(C)(CO)COc1nc(-c2ccc(NS(=O)(=O)c3cc(Cl)ccc3F)cc2)nc2[nH]ncc12` [Example 57]: the IC50 came out at 8.3 nM in experiment [2] and 500 nM in experiment [3].
With `Cc1n[nH]c2nc(-c3ccc(NS(=O)(=O)c4cc(Cl)ccc4Cl)c(F)c3)ncc12` [Example 434], the IC50 in experiment [2] came out at 1.8 nM; in experiment [3], 3500 nM.
For `Cc1n[nH]c2nc(-c3ccc(NS(=O)(=O)c4cc(Cl)ccc4F)cc3)ncc12` [Example 10] the same measures were less than 1.2 nM and 430 nM.
For `COc1ccc(F)c(S(=O)(=O)Nc2ccc(-c3nc(OC4CCCNC4)c4c(C)n[nH]c4n3)cc2)c1` (stereo not shown) [Example 294], the figures for the IC50 in experiment [2] and in experiment [3] were 3.5 nM and 270 nM, respectively.
Turning to `Cc1n[nH]c2nc(-c3ccc(NS(=O)(=O)c4cc(F)ccc4C#N)cc3)nc(OC3CCC(O)CC3)c12` (stereo not shown) [Example 131], the IC50 in experiment [2] is 4.9 nM; in experiment [3], 2600 nM.
In the case of `O=S(=O)(Nc1ccc(-c2nc(N3CCNCC3)c3cn[nH]c3n2)cc1)c1cccc(Cl)c1Cl` [Example 15], the IC50 in experiment [2] is less than 1.2 nM; in experiment [3], 870 nM.
In the case of `Nc1n[nH]c2cc(-c3ccc(NS(=O)(=O)c4cc(Cl)ccc4F)cc3)ncc12` [Example 559], the IC50 in experiment [2] is 19 nM; in experiment [3] it was 390 nM.
Take `COc1nc(-c2ccc(NS(=O)(=O)c3cc(Cl)cc(F)c3F)cc2)nc2[nH]ncc12` [Example 178]: the IC50 in experiment [2] worked out at 350 nM; in experiment [3], 800 nM.
`COc1ccc(Cl)c(S(=O)(=O)Nc2ccc(-c3nc(OCC4CNCCO4)c4c(C)n[nH]c4n3)cc2)c1` (stereo not shown) [Example 290]: the IC50 came out at 3.3 nM in experiment [2] and 15 nM in experiment [3].
Take `Cc1ccc(F)c(S(=O)(=O)Nc2ccc(-c3nc(OCCCN)c4cn[nH]c4n3)cc2)c1` [Example 204]: the results for the IC50 in experiment [2] and in experiment [3] were less than 1.5 nM and 130 nM, respectively.
For `Cc1ccc(C#N)c(S(=O)(=O)Nc2ccc(-c3nc(OC4CNC4)c4cn[nH]c4n3)cc2)c1` [Example 188], the IC50 is 3.4 nM in experiment [2] and 900 nM in experiment [3].
`O=S(=O)(Nc1ccc(-c2nc(N3CCC(O)C3)c3cn[nH]c3n2)cc1F)c1cc(Cl)ccc1Cl` (stereo not shown) [Example 438]: the IC50 in experiment [2] is 85 nM; in experiment [3] it was 7800 nM.
Consider `COc1ccc(Cl)c(S(=O)(=O)Nc2ccc(-c3nc(OC4CCCNC4)c4c(C)n[nH]c4n3)cc2)c1` (stereo not shown) [Example 319], for which the IC50 came out at 4.5 nM in experiment [2] and 31 nM in experiment [3].
As for `COc1ccc(F)c(S(=O)(=O)Nc2ccc(-c3nc(OC4CCNCC4F)c4c(C)n[nH]c4n3)cc2)c1` (stereo not shown) [Example 302], the IC50 was 1.9 nM in experiment [2] and 86 nM in experiment [3].
For the molecule `O=S(=O)(Nc1ccc(-c2nc(N3CCC(O)CC3)c3cn[nH]c3n2)cc1)c1cc(Cl)ccc1Cl` [Example 74], the IC50 in experiment [2] was found to be 5.5 nM; in experiment [3], 1200 nM.
For `COc1ccc(Cl)c(S(=O)(=O)Nc2ccc(-c3nc(N4CC(CO)C4)c4cn[nH]c4n3)cc2)c1` [Example 110] the same measures were 14 nM and 5100 nM.
